In data set [1] the test system is phosphotyrosine (p-Tyr) in thioglycollate stimulated mouse macrophages. The data set is described as follows: Tyrosine phosphorylation assay (Western blot, anti-phosphotyrosine antibody). The data set is classed as cell-based. Particulars: 20 μg/ml, 10 minutes, Western blot (FIG. 1). The method, then:
Thioglycollate stimulated mouse macrophages were treated for 10 minutes with 20 μg/ml of the tested compound in phosphate buffered saline (PBS) with 1% ethanol. Treatment with either 20 μg/ml of phosphatidylcholine or solvent (PBS with 1% ethanol) was used as a negative control. Treatment with 20 μg/ml CI-201 (1-hexadecyl-2-(4′-carboxy)butyl-sn-glycero-3-phosphothiocholine) was used as a positive control.
Proteins with phosphorylated tyrosine were then observed by Western blot, using a monoclonal anti-phosphotyrosine antibody. Western blotting for ERK1/2 was performed as a control for protein loading.
(In general: Immunoblotting shows a protein as a band on a membrane.)

Data set [2] concerns Thioglycollate-elicited mouse peritoneal macrophages. The data set is described as follows: In vitro toxicity assay (crystal violet staining, cell numbers). The data set is classed as cell-based. Particulars: for Macrophage survival rate: 24 hours incubation, normalized to vehicle, mean ± SD, one of three experiments; for LD50: mouse peritoneal macrophages, 24 hours. How it is done:
Thioglycollate-elicited mouse peritoneal macrophages were washed, counted and seeded (5×10^5 cells per well in 24-well plates) in triplicate wells in medium containing RPMI-1640, L-glutamine, 10% fetal calf serum (FCS) and antibiotics (penicillin/streptomycin). After a recovery period of 24 hours, the tested compound (or controls) was added to the cell medium at doses of 2, 10, 20, 50, 100 or 150 μg/ml, keeping the added volume equal in all treatments by complementing the volume with solvent.
Following addition of the compounds, the cells were incubated for an additional 24 hours, after which the cells were washed, fixed with a solution of 10% methanol/10% acetic acid and stained with crystal violet (0.4% in 20% ethanol). Cell numbers were measured by determining optical density at 595 nm. Cells incubated with vehicle (PBS with 1% ethanol) were used as a control, to which cell numbers in treated samples were normalized. Each experiment was performed three times.

Data set [3] deals with IL12/23p40 production by peptidoglycan-activated BMDCs. Put plainly: In vitro IL12/23p40 assay (ELISA). It counts as cell-based, mouse. Particulars: 1 to 20 μg/ml added for 1 hour, then 24 hours with 10 μg/ml peptidoglycan (FIG. 2). The method, then: Bone marrow derived cells (BMDCs) were obtained from the femur and tibia of female C57BL mice. Bone-marrow was flushed out femur and tibia with cold RPMI-1640. A cell suspension was prepared, and erythrocytes were removed using red blood cell (RBC) lysis buffer. […] Cells were then washed, resuspended in the same buffer, and depleted from B and T cells on a Midi-Macs separation unit through a LD or LS column (Miltenyi Biotech). The cells were prepared freshly for each experiment.
The depleted bone marrow cells were counted, washed and seeded at a concentration of 10^6 cells/ml in medium containing RPMI-1640, L-glutamine, β-mercaptoethanol, 10% fetal calf serum (FCS), antibiotics (penicillin/streptomycin) and 20 ng/ml of mouse GM-CSF (granulocyte-macrophage colony-stimulating factor). Medium was replaced every other day. On days 5-6 post culturing, cells were collected, counted and seeded at a concentration of 10^6 cells/ml in the above medium. CI-211 was then added for 1 hour. The cells were activated for IL12/23p40 production by incubation for 24 hours with 10 μg/ml peptidoglycan (PGN). Cytokine production from the supernatant was measured by ELISA. Activated cells without CI-211 were used as the control.
Background: ELISA stands for enzyme-linked immunosorbent assay.

Data set [4] relates to Thioglycollate-elicited mouse peritoneal macrophages. Put plainly: In vitro toxicity assay (crystal violet staining, cell numbers). Particulars: 1, 2.5, 5, 10 or 20 μg/ml. The data set is classed as cell-based.

Values joined by “and” are separate entries in the source; they are usually repeats but may differ in a detail not shown here. Equal values may be shown once.

For the compound `CCCCCCCCCCCCCCCCOC[C@H](COP(=O)([O-])OCC[N+](C)(C)C)OCCCCC(=O)O` [CI-201, 1-hexadecyl 2 (4 carboxy)butyl-sn-glycero-3-phosphocholine, reference compound], in data set [1], the tyrosine phosphorylation levels entry is “reduced”.

As for `CCCCCCCCCCCCCCCCOCC(COP(O)(=S)OCCN)OCCCCC(=O)O` (stereo not drawn) [CI-212, 1-hexadecyl-2-(4-carboxy)butyl-sn-glycero-3-O-thiophosphorylethanolamine], the Macrophage survival rate in data set [2] (2 μg/ml) is 98.7 ± 10.3% and 77.5 ± 5.5% and 80.8 ± 31%; in data set [2] (20 μg/ml) it was 90.6 ± 21.4% and 75.6 ± 9.5% and 97.5 ± 36.4%; in data set [2] (50 μg/ml) it was 71.4 ± 11.4% and 55.1 ± 18.9% and 97.1 ± 48.1%. Moreover, the LD50 result in data set [2] is “above 50 μg/ml and > 90 μM”. For the same compound, in data set [1], the tyrosine phosphorylation levels entry is listed as “reduced”.

Turning to “1-hexadecyl-2-(4-carboxy)butyl-sn-glycero-3-thiophosphorylcholine [CI-211]”, the Macrophage survival rate in data set [2] (2 μg/ml) was 124.7 ± 11.4% and 113.2 ± 7% and 90.4 ± 22.4%; in data set [2] (10 μg/ml), 111.6 ± 28.8% and 118.4 ± 4.2% and 127.9 ± 11.5%. In addition, the LD50 result in data set [2] is “above 100 μg/ml and > 167 μM”. Moreover, the IL12/23p40 secretion result in data set [3] was “decreased”. Besides, the tyrosine phosphorylation levels result in data set [1] is reported as “reduced”. Further, the “toxicity at the concentrations used in the IL12/23p40 assay” value in data set [4] is reported as “non-toxic”.

For the origin of these results see patent publication US8999960B2, “Oxidized thiophospholipid compounds and uses thereof” (Vascular Biogenics Ltd., priority 2008, dated 2015).
